These are literature values, as cited in patent US7431914B2, “Contrast agent” (GE Healthcare AS, priority 2003, dated 2008).

The conditions of the series: both the drug and the chelate conjugate.

Consider `CCCCc1nc(Cl)c(CO)n1Cc1ccc(-c2ccccc2-c2nn[nH]n2)cc1` [Losartan], for which the “excrete through the liver” value was “more than 80%”.
